Counter-ions that a name gives are not always drawn.

One may read the IC50 as the midpoint of a concentration-inhibition curve. A higher IC50 goes with a need for much substance.

For this assay, the system named is clot lysis (fibrinolysis) in diluted human citrated plasma, tPA-induced. Description: Plasma-based clot lysis assay (5%). Format: biochemical. Conditions: human citrated platelet-poor plasma 5%, fibrinogen 3 μM, CaCl2 10 mM, tPA 0.2 nM, 37° C., OD at 405 nm. In outline: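 Clot formation and breakdown triggered by CaCl2 (10 mM final) plus tPA (0.2 nM final) at 37° C, in 5% diluted human plasma supplemented with 3 μM fibrinogen (HEPES/NaCl/Brij buffer, pH 7). IC50 obtained from time courses relative to a blank control.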
On to `COc1ccc(OC)c(-c2cnn3c(C4CCNCC4)cc(=O)[nH]c23)c1` [Example 62, 3-(2,5-Dimethoxyphenyl)-7-(piperidin-4-yl)pyrazolo[1,5-a]pyrimidin-5(4H)-one hydrochloride], for which the midpoint of inhibition, the IC50, lay at 34 nM. Regarding `O=c1cc(C2CCNCC2)n2ncc(-c3nnc(-c4cccs4)o3)c2[nH]1` [Example 288, 7-(piperidin-4-yl)-3-[5-(thiophen-2-yl)-1,3,4-oxadiazol-2-yl]pyrazolo[1,5-a]pyrimidin-5 (4H)-one hydrochloride], the IC50 was 27 nM. `O=c1cc(C2CCNCC2)n2ncc(-c3noc(-c4cc(Cl)cc(Cl)c4)n3)c2[nH]1` [Example 234, 3-[5-(3,5-dichlorophenyl)-1,2,4-oxadiazol-3-yl]-7-(piperidin-4-yl)pyrazolo[1,5-a]pyrimidin-5(4H)-one hydrochloride]: 35 nM corresponded to half-maximal inhibition (IC50).

In turn, `CCc1nc(-c2cnn3c(C4CCNCC4)cc(=O)[nH]c23)no1` [Example 262, 3-(5-ethyl-1,2,4-oxadiazol-3-yl)-7-(piperidin-4-yl)pyrazolo[1,5-a]pyrimidin-5(4H)-one hydrochloride] returned an IC50 of 23 nM. `O=c1cc(C2CCNCC2)n2ncc(-c3nc(-c4cccc([N+](=O)[O-])c4)no3)c2[nH]1` [Example 205, 3-[3-(3-nitrophenyl)-1,2,4-oxadiazol-5-yl]-7-(piperidin-4-yl)pyrazolo[1,5-a]pyrimidin-5(4H)-one hydrochloride]: half-maximal inhibition (IC50) was put at 35 nM.

`O=c1cc(C2CCNCC2)n2ncc(-c3noc(-c4cccc(C(F)(F)F)c4)n3)c2[nH]1` [Example 227, 7-(piperidin-4-yl)-3-{5-[3-(trifluoromethyl)phenyl]-1,2,4-oxadiazol-3-yl}pyrazolo[1,5-a]pyrimidin-5(4H)-one hydrochloride] registered an IC50 of 34 nM.

`COc1ccc(Cc2nnc(-c3cnn4c(C5CCNCC5)cc(=O)[nH]c34)o2)cc1F` [Example 447, 3-[5-(3-fluoro-4-methoxybenzyl)-1,3,4-oxadiazol-2-yl]-7-(piperidin-4-yl)pyrazolo[1,5-a]pyrimidin-5(4H)-one hydrochloride] displayed a 50% inhibitory concentration (IC50) of 14 nM. The same measure for `O=c1cc(C2CCNCC2)n2ncc(-c3nc(-c4ccco4)no3)c2[nH]1` [Example 110]: 82 nM.

`O=C(c1cnn2c(C3CCNCC3)cc(=O)[nH]c12)N1CCCC1` [Example 322, 7-(piperidin-4-yl)-3-(pyrrolidin-1-ylcarbonyl)pyrazolo[1,5-a]pyrimidin-5(4H)-one hydrochloride] had an IC50 of 36 nM. The figure for `O=c1cc(C2CCNCC2)n2ncc(-c3nc(-c4cccc(Cl)c4F)no3)c2[nH]1` [Example 132, 3-[3-(3-Chloro-2-fluorophenyl)-1,2,4-oxadiazol-5-yl]-7-(piperidin-4-yl)pyrazolo[1,5-a]pyrimidin-5(4H)-one hydrochloride] is 35 nM. The same measure for `Cc1nn2c(C3CCNCC3)cc(=O)[nH]c2c1C(=O)NCC(C)C` [Example 418, N-isobutyl-2-methyl-5-oxo-7-(piperidin-4-yl)-4,5-dihydro-pyrazolo[1,5-a] pyrimidine-3-carboxamide hydrochloride]: 31 nM.

`O=c1cc(C2CCNCC2)n2ncc(-c3nnc(Cc4ccccc4)o3)c2[nH]1` [Example 180, 3-(5-benzyl-1,3,4-oxadiazol-2-yl)-7-(piperidin-4-yl)pyrazolo[1,5-a]pyrimidin-5(4H)-one hydrochloride]: the IC50 came out at 35 nM. The same measure for `N#Cc1cccc(-c2cnn3c(C4CCNCC4)cc(=O)[nH]c23)c1` [Example 50, 3-[5-Oxo-7-(piperidin-4-yl)-4,5-dihydropyrazolo[1,5-a]pyrimidin-3-yl]benzonitrile trifluoroacetate]: 24 nM; for `COc1ccc(C2(c3nc(-c4cnn5c(C6CCNCC6)cc(=O)[nH]c45)no3)CC2)cc1` [Example 245, 3-{5-[1-(4-methoxyphenyl)cyclopropyl]-1,2,4-oxadiazol-3-yl}-7-(piperidin-4-yl)pyrazolo[1,5-a]pyrimidin-5(4H)-one hydrochloride]: 29 nM; for `COc1ccc(-c2cnn3c(C4CCNCC4)cc(=O)[nH]c23)cc1` [Example 53, 3-(4-Methoxyphenyl)-7-(piperidin-4-yl)pyrazolo[1,5-a]pyrimidin-5(4H)-one hydrochloride]: 15 nM. Molecule `Cc1ccccc1Cc1noc(-c2cnn3c(C4CCNCC4)cc(=O)[nH]c23)n1` [Example 198, 3-[3-(2-methylbenzyl)-1,2,4-oxadiazol-5-yl]-7-(piperidin-4-yl)pyrazolo[1,5-a]pyrimidin-5(4H)-one hydrochloride] had an IC50 of 34 nM. The same measure for `O=c1cc(C2CCNCC2)n2ncc(-c3ccc4c(c3)OCCO4)c2[nH]1` [Example 61, 3-(2,3-Dihydro-1,4-benzodioxin-6-yl)-7-(piperidin-4-yl)pyrazolo[1,5-a]pyrimidin-5 (4H)-one hydrochloride]: 34 nM. The figure for `O=C(c1cnn2c(C3CCNCC3)cc(=O)[nH]c12)C1CC1` [Example 453, 3-(cyclopropylcarbonyl)-7-(piperidin-4-yl)pyrazolo[1,5-a]pyrimidin-5(4H)-one hydrochloride] is 8 nM; for `O=c1cc(C2CCNCC2)n2ncc(-c3nnc(CN4CCCCC4)o3)c2[nH]1` [Example 291, 7-(piperidin-4-yl)-3-[5-(piperidin-1-ylmethyl)-1,3,4-oxadiazol-2-yl]pyrazolo[1,5-a]pyrimidin-5(4H)-one hydrochloride] it is 85 nM.

`O=c1cc(C2CCNCC2)n2ncc(-c3ccc(F)cc3)c2[nH]1` [Example 4, 3-(4-Fluorophenyl)-7-(piperidin-4-yl)pyrazolo[1,5-a]pyrimidin-5(4H)-one hydrochloride] showed an IC50 of 40 nM. The figure for `CCC(c1ccc(OC)cc1)c1nc(-c2cnn3c(C4CCNCC4)cc(=O)[nH]c23)no1` (racemic) [Example 241, 3-{5-[rac-1-(4-methoxyphenyl)propyl]-1,2,4-oxadiazol-3-yl}-7-(piperidin-4-yl)pyrazolo[1,5-a]pyrimidin-5(4H)-one hydrochloride] is 21 nM; for `O=c1cc(C2CCNCC2)n2ncc(-c3nnc(C4CCCC4)o3)c2[nH]1` [Example 177, 3-(5-cyclopentyl-1,3,4-oxadiazol-2-yl)-7-(piperidin-4-yl)pyrazolo[1,5-a]pyrimidin-5(4H)-one hydrochloride] it is 40 nM. `O=c1cc(C2CCNCC2)n2ncc(-c3nc(-c4ccc(C(F)(F)F)cc4C(F)(F)F)no3)c2[nH]1` [Example 152, 3-{3-[2,4-Bis(trifluoromethyl)phenyl]-1,2,4-oxadiazol-5-yl}-7-(piperidin-4-yl)pyrazolo[1,5-a]pyrimidin-5(4H)-one hydrochloride]: the midpoint of inhibition, the IC50, lay at 43 nM. The same measure for `CC(C)(C)c1nnc(-c2cnn3c(C4CCNCC4)cc(=O)[nH]c23)o1` [Example 165, 3-(5-tert-butyl-1,3,4-oxadiazol-2-yl)-7-(piperidin-4-yl)pyrazolo[1,5-a]pyrimidin-5 (4H)-one hydrochloride]: 34 nM. `Cc1nn2c(C3CCNCC3)cc(=O)[nH]c2c1C(=O)N(C)CC1CC1` [Example 425, N-(cyclopropyl-methyl)-N,2-dimethyl-5-oxo-7-(piperidin-4-yl)-4,5-dihydro-pyrazolo[1,5-a] pyrimidine-3-carboxamide hydrochloride] registered an IC50 of 37 nM. The figure for `O=c1cc(C2CCNCC2)n2ncc(-c3nc(Cc4ccc(F)cc4Cl)no3)c2[nH]1` [Example 195, 3-[3-(2-chloro-4-fluorobenzyl)-1,2,4-oxadiazol-5-yl]-7-(piperidin-4-yl)pyrazolo[1,5-a]pyrimidin-5(4H)-one hydrochloride] is 35 nM; for `O=C(OC1CCC1)c1cnn2c(C3CCNCC3)cc(=O)[nH]c12` [Example 356, Cyclobutyl 5-oxo-7-(piperidin-4-yl)-4,5-dihydropyrazolo[1,5-a]pyrimidine-3-carboxylate hydrochloride] it is 23 nM; for `CC(C)S(=O)(=O)Cc1noc(-c2cnn3c(C4CCNCC4)cc(=O)[nH]c23)n1` [Example 201, 3-{3-[(isopropylsulfonyl)methyl]-1,2,4-oxadiazol-5-yl}-7-(piperidin-4-yl)pyrazolo[1,5-a]pyrimidin-5(4H)-one hydrochloride] it is 34 nM. The figure for `CCC(C)C(=O)c1cnn2c(C3CCNCC3)cc(=O)[nH]c12` (stereo not shown) [Example 452, 3-(2-methylbutanoyl)-7-(piperidin-4-yl)pyrazolo[1,5-a]pyrimidin-5 (4H)-one hydrochloride] is 8 nM; for `Cc1ccccc1CNC(=O)c1cnn2c(C3CCNCC3)cc(=O)[nH]c12` [Example 86, N-(2-methylbenzyl)-5-oxo-7-(piperidin-4-yl)-4,5-dihydropyrazolo[1,5-a]pyrimidine-3-carboxamide hydrochloride] it is 17 nM. On to `O=c1cc(C2CCNCC2)n2ncc(-c3nnc(C4CC4)o3)c2[nH]1` [Example 174, 3-(5-cyclopropyl-1,3,4-oxadiazol-2-yl)-7-(piperidin-4-yl)pyrazolo[1,5-a]pyrimidin-5 (4H)-one hydrochloride], for which the IC50 came to 34 nM. The same measure for `O=c1cc(C2CCNCC2)n2ncc(-c3noc(-c4ccccc4F)n3)c2[nH]1` [Example 216, 3-[5-(2-fluorophenyl)-1,2,4-oxadiazol-3-yl]-7-(piperidin-4-yl)pyrazolo[1,5-a]pyrimidin-5 (4H)-one hydrochloride]: 34 nM; for `O=c1cc(C2CCNCC2)n2ncc(-c3cccs3)c2[nH]1` [Example 59, 7-(Piperidin-4-yl)-3-(2-thienyl)pyrazolo[1,5-a]pyrimidin-5(4H)-one hydrochloride]: 15 nM. The same measure for `O=C(OCCCF)c1cnn2c(C3CCNCC3)cc(=O)[nH]c12` [Example 352, 3-fluoropropyl 5-oxo-7-(piperidin-4-yl)-4,5-dihydropyrazolo[1,5-a]pyrimidine-3-carboxylate hydrochloride]: 44 nM.

For the origin of these results see patent US10118930B2, “Piperidinylpyrazolopyrimidinones and their use” (BAYER PHARMA AKTIENGESELLSCHAFT, priority 2015, dated 2018).
